In this experiment the target is T1, Full-length, GST-tagged, human CaMKIIδ (Homo sapiens, UniProt Q13557).
T1 construct: Full-Length, Glutathione-S-Transferase(GST)-Tagged, Human CaMKIIδ was purchased from Carna Biosciences; purchased Carna Biosciences 02-111
The experiment can be described thus: CaMKIIδ binding assay (TR-FRET with BODIPY-labeled probe ligand). An outline of the steps: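 TR-FRET probe-displacement binding: 0.5 nM GST-CaMKIIδ with 10 μg/mL calmodulin, 1 mM CaCl2, 0.21 nM Tb-anti-GST Ab and 300 nM BODIPY probe in HEPES pH 7.6 buffer. Eight-point 4-fold dilutions, 1 hr at room temperature. IC50 from logistic fit; 100% inhibition defined by 3 μM parent compound.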

[1] abbreviates: CaMKIIδ binding assay, results of Table 2.
Setting [2] is: Table 2, activity class for CaMKIIδ.

This note sets out measurements from US10543212B2, “Substituted amines for treating cardiac diseases” (Cardurion Pharmaceuticals, LLC, priority 2017, dated 2020).

A value given as a limit tells only on which side of the number the result lay.

T1 sequence (Q13557 1-478 isoform Q13557-12): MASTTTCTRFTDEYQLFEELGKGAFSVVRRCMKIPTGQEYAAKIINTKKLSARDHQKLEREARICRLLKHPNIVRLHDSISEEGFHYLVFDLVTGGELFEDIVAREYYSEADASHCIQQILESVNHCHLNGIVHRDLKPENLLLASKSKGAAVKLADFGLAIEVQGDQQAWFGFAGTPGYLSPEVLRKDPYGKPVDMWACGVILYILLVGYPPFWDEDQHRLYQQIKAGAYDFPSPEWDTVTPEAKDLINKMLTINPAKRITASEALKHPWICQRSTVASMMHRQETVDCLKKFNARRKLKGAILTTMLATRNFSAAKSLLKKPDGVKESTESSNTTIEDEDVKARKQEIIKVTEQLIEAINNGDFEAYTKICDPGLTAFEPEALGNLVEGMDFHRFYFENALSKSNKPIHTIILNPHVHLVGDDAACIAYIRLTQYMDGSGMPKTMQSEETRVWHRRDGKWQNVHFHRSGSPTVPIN

Broadly, the IC50 is the concentration that gives 50% inhibition. A high value points to weaker potency. In the case of `Cc1cc(N2CCC(N3CCOCC3)CC2)ccc1Nc1ncc(-c2ccc(Cl)c(O[C@@H](C)Cn3cnnn3)c2)cn1` [Example 453, (S)-5-(3-((1-(1H-tetrazol-1-yl)propan-2-yl)oxy)-4-chlorophenyl)-N-(2-methyl-4-(4-morpholinopiperidin-1-yl)phenyl)pyrimidin-2-amine], the IC50 under setting [1] is less than 10 nM.
With `COc1nn(C2CCN(C3CCOCC3)CC2)cc1Nc1ncc(-c2ccc(Cl)c(O[C@@H](C)Cn3cnnn3)c2)cn1` [Example 662, (S)-5-(3-((1-(1H-tetrazol-1-yl)propan-2-yl)oxy)-4-chlorophenyl)-N-(3-methoxy-1-(1-(tetrahydro-2H-pyran-4-yl)piperidin-4-yl)-1H-pyrazol-4-yl)pyrimidin-2-amine], the IC50 under setting [2] is less than 10 nM.
For the setting “CaMKIIδ binding assay, activity class per Table 2”, `CC(Cn1cnnn1)Oc1cc(-c2cnc(Nc3cn(CC4(O)CCC(O)CC4)nc3OCC(F)(F)F)nc2)ccc1Cl` [Example 907, cis-1-((4-((5-(3-(((S)-1-(1H-tetrazol-1-yl)propan-2-yl)oxy)-4-chlorophenyl)pyrimidin-2-yl)amino)-3-(2,2,2-trifluoroethoxy)-1H-pyrazol-1-yl)methyl)cyclohexane-1,4-diol] gave an IC50 of less than 10 nM.
In turn, `COc1cc2c(cc1Nc1ncc(-c3ccc(Cl)c(O[C@@H](C)Cn4cnnn4)c3)cn1)CN(C1COC1)CC2` [Example 463, (S)-N-(5-(3-((1-(1H-tetrazol-1-yl)propan-2-yl)oxy)-4-chlorophenyl)pyrimidin-2-yl)-6-methoxy-2-(oxetan-3-yl)-1,2,3,4-tetrahydroisoquinolin-7-amine] showed an IC50 under setting [1] of less than 10 nM.
`CCn1cc(Nc2ncc(-c3ccc(Cl)c(O[C@@H](C)Cn4cnnn4)c3)cn2)c(N2CCC2)n1` [Example 668, (S)-5-(3-((1-(1H-tetrazol-1-yl)propan-2-yl)oxy)-4-chlorophenyl)-N-(3-(azetidin-1-yl)-1-ethyl-1H-pyrazol-4-yl)pyrimidin-2-amine] showed an IC50 under setting [2] of no less than 100 nM.
With `C[C@@H](Cn1cnnn1)Oc1cc(-c2cnc(Nc3cn(C4Cc5ccccc5C4)nc3C(F)(F)F)nc2)ccc1Cl` [Example 724, (S)-5-(3-((1-(1H-tetrazol-1-yl)propan-2-yl)oxy)-4-chlorophenyl)-N-(1-(2,3-dihydro-1H-inden-2-yl)-3-(trifluoromethyl)-1H-pyrazol-4-yl)pyrimidin-2-amine], the IC50 under setting [2] is no less than 100 nM.
Compound `Cc1ccc(-c2cnc(Nc3cn([C@H]4CC[C@@H](N5CCOCC5)CC4)nc3OCC(F)(F)F)nc2)cc1O[C@@H](C)Cn1cnnn1` [Example 812, 5-(3-(((S)-1-(1H-tetrazol-1-yl)propan-2-yl)oxy)-4-methylphenyl)-N-(1-(cis-4-morpholinocyclohexyl)-3-(2,2,2-trifluoroethoxy)-1H-pyrazol-4-yl)pyrimidin-2-amine] displayed an IC50 (Table 2, CaMKIIδ binding assay, activity given as class A/B/C) of less than 10 nM.
Take `C[C@@H](Cn1cnnn1)Oc1cc(-c2cnc(Nc3cn(CC(=O)Nc4ccccc4)nc3C(F)(F)F)nc2)ccc1Cl` [Example 617, (S)-2-(4-((5-(3-((1-(1H-tetrazol-1-yl)propan-2-yl)oxy)-4-chlorophenyl)pyrimidin-2-yl)amino)-3-(trifluoromethyl)-1H-pyrazol-1-yl)-N-phenylacetamide]: the IC50 under setting [2] was in the range of 10 to 100 nM.
With `C[C@@H](Cn1cnnn1)Oc1cc(-c2cnc(Nc3cn(CC4CCNC4)nc3C(F)(F)F)nc2)ccc1Cl` (stereo partly drawn) [Example 572, 5-(3-(((S)-1-(1H-tetrazol-1-yl)propan-2-yl)oxy)-4-chlorophenyl)-N-(1-(pyrrolidin-3-ylmethyl)-3-(trifluoromethyl)-1H-pyrazol-4-yl)pyrimidin-2-amine], under setting [1], the IC50 is less than 10 nM.
`CCn1cc(Nc2ncc(-c3ccc(Cl)c(O[C@@H](C)Cn4cnnn4)c3)cn2)c(OCC(F)(F)F)n1` [Example 700, (S)-5-(3-((1-(1H-tetrazol-1-yl)propan-2-yl)oxy)-4-chlorophenyl)-N-(1-ethyl-3-(2,2,2-trifluoroethoxy)-1H-pyrazol-4-yl)pyrimidin-2-amine] yielded an IC50 under setting [2] of less than 10 nM.
